Legend:
[1] = absolute recovery over mixed-bed multilayer solid-phase extraction; higher = better recovery; conditions: enrichment method: SPE
Summary of the method: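 Elution from a three-layer mixed-bed cartridge used basic followed by acidic ethyl acetate/methanol, after loading either 1000 mL of unfiltered nanopure water or 100–250 mL of wastewater that had been set to pH 6.5 and glass-fibre filtered. Standards went in before or after extraction, or were left out, at 200 ng/L (water) or 1000 ng/L (wastewater), with class exceptions. Internal standards were added afterwards, and measurement was by liquid chromatography with high-resolution tandem mass spectrometry in both ionisation modes. For absolute recovery, background-corrected response ratios of pre-spiked samples were compared with those of post-spiked samples and averaged over at least two replicates.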

[2] = absolute recovery over vacuum-assisted evaporative concentration; higher = better recovery; conditions: enrichment method: VEC
Summary of the method: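 Water samples (influent 6 mL, effluent 15 mL, surface and nanopure water 60 mL) were spiked with standards before concentration, after concentration or not at all, at 200 ng/L (nanopure/surface) or 1000 ng/L (wastewater), with class- and compound-specific adjustments. They were evaporated at 55 °C and 20 mbar to about 0.3 mL, brought to 0.4 mL and centrifuged. Internal standards were added afterwards and samples were analysed by LC-HRMS/MS. Absolute recovery was (response ratio pre − unspiked)/(post − unspiked) × 100, using averages of ≥ 2 replicates.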

[3] = LC retention time (Atlantis T3, 5-95% MeOH gradient, 0.1% formic acid); higher = more retained / less polar
Summary of the method: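 Retention times refer to reference standards measured by liquid chromatography with high-resolution tandem mass spectrometry. Separation was on an Atlantis T3 C18 column (3 × 150 mm, 3 μm) at 0.3 mL/min with a 5 to 95% methanol gradient over 17.5 min, both solvents carrying 0.1% formic acid. Positive and negative electrospray were run separately on a QExactive Plus, and TraceFinder peak integration (5 ppm tolerance, at least three points per peak) was reviewed by hand.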

| absolute recovery ([1]; nanopure water) | absolute recovery ([1]; surface water) | absolute recovery ([1]; wastewater effluent) | absolute recovery ([1]; wastewater influent) | absolute recovery ([2]; wastewater effluent) | absolute recovery ([2]; wastewater influent) | LC retention time [3] | SMILES |
| --- | --- | --- | --- | --- | --- | --- | --- |
| 97.9% | 97.8% | 89.8% | 90.1% | 112% | 107% | 14.5 min | Cc1nnc(-c2ccccc2)c(=O)[n-]1 [Metamitron-Desamino] |
| 104% | 85.9% | 87.1% | 87.9% | 95.8% | 99.2% | 17.8 min | Cc1cc(C)cc(OCC2CNC(=O)O2)c1 (stereo not drawn) [Metaxalone] |
| 98.7% | 95.6% | 96.8% | 97.6% | 102% | 104% | 17.5 min | Cc1cccc(C)c1N(Cn1cccn1)C(=O)CS(=O)(=O)[O-] [Metazachlor-ESA] |
| 95.6% | 97.5% | 92.4% | 87.4% | 108% | 103% | 17.1 min | Cc1cccc(C)c1N(Cn1cccn1)C(=O)C(=O)[O-] [Metazachlor-OXA] |
| 88.2% | – | – | – | 118% | – | 3.25 min | CN(C)C(=[NH2+])NC(N)=[NH2+] [Metformin] |
| 99.2% | 84.5% | 89.9% | 89.6% | 99% | 85.5% | 16.6 min | CN1C(=O)CC(C)(c2ccccc2)C1=O (stereo not drawn) [Methsuximide] |
| 93.1% | 92.3% | 84.4% | 88.4% | 106% | 101% | 18.9 min | CC1CC2C(C(O)CC3(C)C2CCC3(O)C(=O)CO)C2(C)C=CC(=O)C=C12 (stereo not drawn) [Methylprednisolon] |
| 86.5% | 90% | 85.3% | 86.5% | 102% | 92.6% | 11.3 min | CC[NH+](CC)CCNC(=O)c1cc(Cl)c(N)cc1OC [Metoclopramid] |
| 102% | 86.5% | 83.1% | 91.2% | 89.6% | – | 18.1 min | CCc1cccc(C)c1N1C(=O)COCC1C (stereo not drawn) [Metolachlor-Morpholinon] |
| 81.6% | 67.5% | 87.9% | 97.3% | 110% | 99.1% | 21.3 min | CCc1cccc(C)c1N(C(=O)C(=O)[O-])C(C)COC (stereo not drawn) [Metolachlor-OXA] |
| 94.8% | 93.1% | 93.3% | 89.5% | 107% | 102% | 12.3 min | COCCc1ccc(OCC(O)C[NH2+]C(C)C)cc1 (stereo not drawn) [Metoprolol] |
| 96.2% | 91.2% | 94.4% | 90.7% | 101% | 109% | 17.7 min | CSc1nc(=O)c(C(C)(C)C)n[n-]1 [Metribuzin-Desamino (=DA)] |
| 94.5% | – | – | – | 91.2% | 96.4% | 15.6 min | CC(C)(C)c1n[nH]c(=O)n(N)c1=O [Metribuzin-Diketo (=DK)] |
| 95.6% | 91.3% | 87.1% | 95.9% | 102% | 102% | 10 min | Cc1ncc([N+](=O)[O-])n1CCO [Metronidazol] |
| 69.1% | 68.7% | 67.6% | 80.7% | 97.3% | 99.1% | 13.2 min | Cc1cccc(C)c1OCC(C)[NH3+] (stereo not drawn) [Mexiletine] |
| 93.7% | 103% | – | 81.2% | 100% | 105% | 15.1 min | C[N+]1([O-])CCN2c3ccccc3Cc3ccccc3C2C1 (stereo not drawn) [Mianserin-N-Oxide] |

| absolute recovery ([1]; nanopure water) | absolute recovery ([1]; surface water) | absolute recovery ([1]; wastewater effluent) | absolute recovery ([1]; wastewater influent) | absolute recovery ([2]; wastewater effluent) | absolute recovery ([2]; wastewater influent) | LC retention time [3] | SMILES |
| --- | --- | --- | --- | --- | --- | --- | --- |
| 90.1% | – | 95.7% | 68.4% | 104% | 108% | 14.5 min | C[NH+]1CCN2c3ccccc3Cc3ccccc3C2C1 (stereo not drawn) [Mianserin] |
| 91.4% | 100% | 90.8% | 84.5% | 105% | 94% | 11.6 min | O=C(NCCN1CCOCC1)c1ccc(Cl)cc1 [Moclobemid] |
| 37.8% | 71.7% | 61.7% | 53.1% | 79.2% | 31.6% | 13.7 min | C=CC(=O)OCCOC(=O)CCC(=O)[O-] [Mono(2-acryloyloxyethyl)-succinate] |
| 99.6% | 97.1% | 100% | – | 103% | – | 18.9 min | COc1c(C)c2c(c(O)c1CC=C(C)CCC(=O)[O-])C(=O)OC2 [Mycophenolic-Acid] |
| 98.6% | 93.8% | 89.2% | 92.8% | 113% | 99.5% | 12 min | CC(=O)Nc1ccc(S(=O)(=O)[N-]c2ncccn2)cc1 [N4-Acetyl-Sulfadiazin] |
| 86.9% | 91% | 93.2% | 93.2% | 108% | 97.1% | 13.1 min | CC(=O)Nc1ccc(S(=O)(=O)[N-]c2nc(C)cc(C)n2)cc1 [N4-Acetyl-Sulfamethazin] |
| 99.1% | 97.9% | 90.7% | 94% | 108% | 96% | 14.5 min | CC(=O)Nc1ccc(S(=O)(=O)[N-]c2cc(C)on2)cc1 [N4-Acetyl-Sulfamethoxazol] |
| 98.7% | 96.1% | 94% | 90% | 105% | 101% | 12.2 min | CC(=O)Nc1ccc(S(=O)(=O)[N-]c2nccs2)cc1 [N4-Acetyl-Sulfathiazol] |
| 64.8% | 65.4% | 56.8% | 67.5% | 97.6% | 85% | 7.84 min | CC(=O)N(C)c1ccc(N)cc1 [N-(4-Aminophenyl)-N-methyl-acetamid] |
| 104% | 98.1% | 98.7% | 121% | 117% | 94.9% | 13.1 min | CCC1OC(=O)C(C)C(OC2CC(C)(OC)C(O)C(C)O2)C(C)C(OC2OC(C)CC([NH2+]C)C2O)C(C)(O)CC(C)C[NH+](C)C(C)C(O)C1(C)O (stereo not drawn) [N-Desmethyl-Azithromycin] |
| 76.9% | 82.5% | 76.2% | 85.7% | 105% | 101% | 14.1 min | C[NH2+]CC(c1ccc(OC)cc1)C1(O)CCCCC1 (stereo not drawn) [N-Desvenlafaxin] |
| 62.3% | 66.9% | 62.4% | 78.1% | 73.6% | 72.1% | 11.4 min | C#CC[NH+](C)Cc1ccccc1 [N-Methyl-N-propargylbenzylamine] |
| 84.7% | 77.4% | 84.9% | 144% | 74.1% | 81.1% | 15.5 min | CC(=O)N(C)c1ccccc1 [N-Methylacetanilid] |
| 40.5% | 50.1% | 44.7% | 66.6% | 105% | 91% | 14.1 min | COc1ccc(C(C[NH3+])C2(O)CCCCC2)cc1 (stereo not drawn) [N-N-Didesvenlafaxin] |
| 86.9% | 89.1% | 83.2% | 96.5% | 93.2% | 86.2% | 18.4 min | CCN(CC)C(=O)c1cccc(C)c1 [N-N-diethyl-3-methylbenzamid (=DEET)] |

| SMILES | absolute recovery ([1]; nanopure water) | absolute recovery ([1]; surface water) | absolute recovery ([1]; wastewater effluent) | absolute recovery ([1]; wastewater influent) | absolute recovery ([2]; wastewater effluent) | absolute recovery ([2]; wastewater influent) | LC retention time [3] |
| --- | --- | --- | --- | --- | --- | --- | --- |
| COCC(=O)N(c1c(C)cccc1C)C(C)C(=O)OC (stereo not drawn) [Metalaxyl] | 96.6% | 95.8% | 93.6% | 94.7% | 103% | 97.8% | 18.4 min |
| Cc1nnc(-c2ccccc2)c(=O)n1N [Metamitron] | 97.1% | – | 95.8% | 97.5% | 106% | 98.5% | 14.3 min |
| Cc1cccc(C)c1N(Cn1cccn1)C(=O)CCl [Metazachlor] | 96.5% | 97% | 93.4% | 94.5% | 104% | 96% | 18.3 min |
| CC1(C)CCC(Cc2ccc(Cl)cc2)C1(O)Cn1cncn1 (stereo not drawn) [Metconazole] | 95.9% | 108% | 94.9% | 80.9% | 100% | 105% | 21.3 min |
| C[NH2+]C(C)Cc1ccccc1 (stereo not drawn) [Methamphetamin] | 92.5% | 86.6% | 89.3% | 92.5% | 100% | 91.3% | 10.6 min |
| COc1nn(CSP(=S)(OC)OC)c(=O)s1 [Methidathion] | 102% | 97.9% | 96.5% | 88.2% | 108% | 106% | 18.8 min |
| CNC(=O)Oc1cc(C)c(SC)c(C)c1 [Methiocarb] | 96.3% | 95.4% | 92.7% | 88.7% | 67.9% | 64% | 19.4 min |
| CNC(=O)ON=C(C)SC [Methomyl] | 82.7% | 77.3% | 79% | 79.3% | 98.3% | 110% | 11.9 min |
| COc1cccc(C(=O)NN(C(=O)c2cc(C)cc(C)c2)C(C)(C)C)c1C [Methoxyfenozid] | 104% | 103% | 98.1% | 94.8% | 104% | 98.9% | 19.7 min |
| CCc1cccc(C)c1N(C(=O)CCl)C(C)COC (stereo not drawn) [Metolachlor] | – | 93% | 90.6% | 92.5% | 93.1% | 91.7% | 20.6 min |
| COc1cc(OC)n2nc(S(=O)(=O)Nc3c(Cl)ccc(C)c3Cl)nc2n1 [Metosulam] | 98.1% | 96.2% | 99.7% | 92.6% | 98.6% | 106% | 17 min |
| COc1ccc(NC(=O)N(C)C)cc1Cl [Metoxuron] | 104% | 92.8% | 90.2% | 129% | 104% | 98.1% | 16 min |
| COc1cc(C)c(C(=O)c2c(OC)ccc(Br)c2C)c(OC)c1OC [Metrafenone] | 103% | 92.4% | 85.4% | 117% | 84.4% | 101% | 21.4 min |
| CSc1nnc(C(C)(C)C)c(=O)n1N [Metribuzin] | 91.1% | 94.1% | 89.8% | 95.2% | 101% | 99.6% | 17.3 min |
| COC(=O)c1ccccc1S(=O)(=O)[N-]C(=O)Nc1nc(C)nc(OC)n1 [Metsulfuron-methyl] | 98.1% | 95.2% | 95.9% | – | 102% | 105% | 17 min |
| Cc1ncc2n1-c1ccc(Cl)cc1C(c1ccccc1F)=NC2 [Midazolam] | 87.5% | 90.5% | 89.6% | 83% | 102% | 106% | 14.5 min |
| CON(C)C(=O)Nc1ccc(Cl)cc1 [Monolinuron] | – | 92.4% | 91.9% | 94.2% | 92.7% | – | 17.9 min |
| CN(C)C(=O)Nc1ccc(Cl)cc1 [Monuron] | 99.5% | – | 94.3% | 90.3% | 103% | 106% | 16.9 min |
| C[NH+]1CCC23c4c5ccc(O)c4OC2C(O)C=CC3C1C5 (stereo not drawn) [Morphin] | 81.1% | 91.3% | 87.9% | 89.6% | 104% | 99.7% | 7.4 min |
| CCCCC(C#N)(Cn1cncn1)c1ccc(Cl)cc1 (stereo not drawn) [Myclobutanil] | 102% | 91.9% | 94% | 85.1% | 109% | 101% | 19.8 min |
| C[NH+]=CNc1ccc(C)cc1C [N-(2-4-dimethylphenyl)-N-methylformamidine] | 35.1% | 27.7% | 47.9% | 52.5% | 76.9% | 79.1% | 11.1 min |
| COc1cccc(C2(O)CCCCC2C[NH3+])c1 (stereo not drawn) [N-Bisdesmethyl-Tramadol] | 50.1% | 47.4% | 46.3% | 70.2% | 105% | 98.5% | 12.8 min |

Source: the supplement of paper PMC6470124
